Usually IC50 stands for the point on the concentration scale where inhibition reaches its midpoint. A lower IC50 goes with higher potency.

Structures are written as SMILES.

The values below come from US7427616B2, “Condensed pyridines and pyrimidines with tie2 (TEK) activity” (AstraZeneca AB, priority 2002, dated 2008).

The target of the experiment is T1, Tie2 receptor (Homo sapiens, UniProt Q02763).
T1 construct: one can use natural cell lines or primary cells which are known to express the receptor of choice; endogenous in cells; host or cells: EA.hy926/B3 cells (HUVEC named as alternative)
Kind of experiment: Cellular Tie2 autophosphorylation assay (Test (b)). In kind it is cell-based. Conditions: Ang1 ligand stimulated autophosphorylation of cellular Tie2 receptor, e.g. EA.hy926/B3 cells. The text has this: b. Cellular Tie2 Autophosphorylation Assay
This assay is based on measuring the ability of compounds to inhibit autophosphorylation of the Tie2 receptor which normally leads to the production of “activated” receptor that in turn initiates the particular signal transduction pathways associated with the receptor function.
Autophosphorylation can be achieved by a number of means. It is known that expression of recombinant kinase domains in baculoviral systems can lead to the production of phosphorylated and activated receptor. […] In these cases the natural, external cell surface domain of the receptor has been replaced with that of a domain which is known to be readily dimerised via the addition of the appropriate ligand (e.g. TrkA-Tie2/NGF ligand (Marron, M. B., et al., 2000 Journal of Biological Chemistry: 275:39741-39746) or C-fms-Tie-1/CSF-1 ligand (Kontos, C. D., et al., 2002 Molecular and Cellular Biology: 22, 1704-1713). Thus when the chimaeric receptor expressed in a host cell line and the respective ligand is added, this induces autophosphorylation of the chimeric receptor's kinase domain. This approach has the advantage of often allowing a known (and often easily obtained) ligand to be used instead of having to identify and isolate the natural ligand for each receptor of interest. […]

T1 sequence (Q02763 23-1124): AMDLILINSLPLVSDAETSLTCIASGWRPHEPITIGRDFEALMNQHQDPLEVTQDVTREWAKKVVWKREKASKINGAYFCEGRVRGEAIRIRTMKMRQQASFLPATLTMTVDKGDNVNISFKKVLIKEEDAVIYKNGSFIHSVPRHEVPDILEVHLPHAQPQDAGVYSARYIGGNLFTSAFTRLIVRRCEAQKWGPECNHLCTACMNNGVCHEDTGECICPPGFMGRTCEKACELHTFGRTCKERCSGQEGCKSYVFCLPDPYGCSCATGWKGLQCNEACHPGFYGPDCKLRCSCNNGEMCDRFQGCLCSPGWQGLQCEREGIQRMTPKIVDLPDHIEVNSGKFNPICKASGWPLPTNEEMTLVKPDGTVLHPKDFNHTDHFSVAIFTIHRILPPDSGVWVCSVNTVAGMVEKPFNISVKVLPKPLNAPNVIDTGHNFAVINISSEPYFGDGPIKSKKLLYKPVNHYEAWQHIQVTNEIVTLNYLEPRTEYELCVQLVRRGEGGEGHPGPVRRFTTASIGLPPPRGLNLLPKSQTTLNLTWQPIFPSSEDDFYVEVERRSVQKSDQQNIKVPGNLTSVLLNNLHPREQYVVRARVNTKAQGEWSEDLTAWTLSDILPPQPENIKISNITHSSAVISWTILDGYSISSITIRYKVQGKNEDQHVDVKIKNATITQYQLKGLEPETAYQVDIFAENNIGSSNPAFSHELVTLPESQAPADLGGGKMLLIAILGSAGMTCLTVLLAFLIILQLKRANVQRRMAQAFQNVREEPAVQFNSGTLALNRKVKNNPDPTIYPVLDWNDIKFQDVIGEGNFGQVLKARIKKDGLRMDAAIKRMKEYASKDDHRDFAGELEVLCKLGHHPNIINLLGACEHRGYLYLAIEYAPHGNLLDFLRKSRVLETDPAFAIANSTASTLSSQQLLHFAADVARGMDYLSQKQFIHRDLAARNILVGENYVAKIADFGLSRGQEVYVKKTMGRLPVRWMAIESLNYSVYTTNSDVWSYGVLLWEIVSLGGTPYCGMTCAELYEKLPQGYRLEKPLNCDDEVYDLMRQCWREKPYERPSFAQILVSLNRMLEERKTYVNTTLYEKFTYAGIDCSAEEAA

In the case of `Cn1cnc(-c2ccccc2)c1-c1nc2c(N)ncnc2s1` [Example 2, 2-(1-Methyl-4-phenyl-1H-imidazol-5-yl)[1,3]thiazolo[5,4-d]pyrimidin-7-amine], the IC50 came out at 2700 nM.

With `CSc1ncnc2sc(-c3c(-c4ccccc4)ncn3C)cc12` [Example 7, 6-(1-Methyl-4-phenyl-1H-imidazol-5-yl)-4-(methylthio)thieno[2,3d]pyrimidine], the concentration for half-maximal inhibition (IC50) is 2200 nM.
